A word on the inhibition: it is the change of the read-out against control, counted positive when it falls. One may read the Ki as a measure of affinity in units of concentration, obtained from inhibition or displacement.

The structures appear in SMILES notation. Read-outs that look alike come from different tables or passages of the source.

This is an account of results in PMC10979501, “Protein Structure-Based Organic Chemistry-Driven Ligand Design from Ultralarge Chemical Spaces” (ACS Central Science, 2024).

For one assay, the target named is T1, human recombinant DRD3 (Homo sapiens, UniProt P35462).
T1 construct: host or cells: CHO cells
T1 sequence (P35462 whole entry): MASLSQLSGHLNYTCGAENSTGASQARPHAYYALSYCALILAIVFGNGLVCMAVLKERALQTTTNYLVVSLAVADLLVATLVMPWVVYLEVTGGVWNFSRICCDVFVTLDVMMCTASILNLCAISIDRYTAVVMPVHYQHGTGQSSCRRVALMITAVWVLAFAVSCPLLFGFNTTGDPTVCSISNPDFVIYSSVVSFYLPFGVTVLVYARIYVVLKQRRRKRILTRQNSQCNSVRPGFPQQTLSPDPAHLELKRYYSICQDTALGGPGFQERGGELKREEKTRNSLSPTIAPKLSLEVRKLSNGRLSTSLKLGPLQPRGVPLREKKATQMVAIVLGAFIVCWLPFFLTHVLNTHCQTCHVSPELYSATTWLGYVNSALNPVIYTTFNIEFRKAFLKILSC
Briefly: [3H]-methylspiperone binding inhibition, human recombinant DRD3 in CHO cells (Eurofins Discovery assay #48). The note with it: for inhibition at 10 µM: 10 μM competitor, single concentration, mean of two independent experiments, CHO cells, read-out: percentage of inhibition of [3H]-methylspiperone binding; for ligand efficiency (LE): SpaceDock hits, LE as in ref 53; for Ki: from six concentrations dose-response curves, read-out: inhibition constant (Ki). The method, then: Fig. S8. Binding of six SpaceDock hits to the human dopamine D3 receptor, expressed by the
percentage of inhibition of [3H]‐methylspiperone binding to human recombinant DRD3 in CHO cells
(Eurofins‐Discovery assay #48). Inhibition constants (Ki) were determined from six concentrations

The target of a further assay is human DRD3. The note with it: cited from earlier work.

Regarding `CCc1cc2c(c(C(=O)NCCN(C(C)C)C3CC3)c1)OCC2` [#1], on human recombinant DRD3, the inhibition at 10 µM amounted to 95.1 ± 1.1%, the “ligand efficiency (LE)” value was determined as 0.40 and the Ki came out at 0.36 µM.

In the case of `CCCN(CCC)CCNC(=O)c1cccc2c(C)c(C)[nH]c12` [#25], at human recombinant DRD3, the inhibition at 10 µM is 90.7 ± 1.6%, the “ligand efficiency (LE)” value was 0.36 and the Ki amounted to 1.4 µM.

For `CCc1ccc2occ(C(=O)NCC3CCCN(CC)C3)c2c1` (stereo not drawn) [#33], on human recombinant DRD3, the inhibition at 10 µM is 34.3 ± 1.3%.

For `CCCN(CCC)CCNC(=O)C1CCc2cnn(C)c2C1` (stereo not drawn) [#35], the inhibition at 10 µM at human recombinant DRD3 was 13.7 ± 1.2%.

In the case of `CC(C)N(CCNC(=O)c1cn(C)nc1C1CCOC1)C1CC1` (stereo not drawn) [#36], the inhibition at 10 µM at human recombinant DRD3 was 21.3 ± 0.4%.

Regarding `CCCN1CCCC1CNC(=O)c1c[nH]cc1-c1ccccc1` (stereo not drawn) [#66], at human recombinant DRD3, the inhibition at 10 µM is 88.2 ± 0.8%, the “ligand efficiency (LE)” value is on record as 0.40 and the Ki amounted to 0.32 µM.

For `CCc1oc(C)cc1C(=O)NCC1CCN(CC)CC1` [#97], the inhibition at 10 µM at human recombinant DRD3 was 13.6 ± 0.2%.

Take `CCCN(CCNC(=O)c1cccc2sccc12)C(C)C` [#107]: at human recombinant DRD3, the inhibition at 10 µM came out at 80.2 ± 0.5%, the “ligand efficiency (LE)” value was found to be 0.39 and the Ki came out at 1.57 µM.

Regarding `CCN(CC)CC(CC)(CC)NC(=O)c1cccc2nc(C)sc12` [#110], the inhibition at 10 µM at human recombinant DRD3 was -5.1 ± 4.5%.

`CCCN(CC)CCNC(=O)c1cc(Br)cc2[nH]cnc12` [#142]: on human recombinant DRD3, the inhibition at 10 µM came out at 88.7 ± 0.1%, the “ligand efficiency (LE)” value was found to be 0.43 and the Ki turned out to be 0.401 µM.

For `CCCN(CC)CCNC(=O)c1nn(C)c2c1CSCC2` [#161], at human recombinant DRD3, the inhibition at 10 µM is 72.6 ± 0.9%, the “ligand efficiency (LE)” value turned out to be 0.39 and the Ki was 1.65 µM.

`Cc1nc2sccn2c1C(=O)NCC1CCCCC1N1CCCC1` (stereo not drawn) [#215]: the inhibition at 10 µM on human recombinant DRD3 amounted to 4.7 ± 1.8%.

As to `CCN1CCC[C@H]1CNC(=O)c1c(-c2ccccc2)noc1C` [#239], the inhibition at 10 µM on human recombinant DRD3 came to 3.5 ± 3.1%.

Regarding `Cc1ccc(C(CNC(=O)c2cc(C)nc3c2cnn3C)N2CCCC2)cc1` (stereo not drawn) [#252], the inhibition at 10 µM on human recombinant DRD3 stood at 26.2 ± 0.8%.

As to `CCCN(CCC)CCNC(=O)c1cccc2oc(C)nc12` [#256], the inhibition at 10 µM on human recombinant DRD3 came out at 44.4 ± 0.8%.

Take `CCN(CC)CCNC(=O)c1cc(Cl)c(N)cc1OC` [CHEMBL86]: the Ki at human DRD3 (closest ChEMBL ligand) is 0.023 µM.

Turning to `COc1cc2c(c(C(=O)NC[C@H]3CCCN3Cc3ccccc3)c1)OCC2` [CHEMBL148352], the Ki on human DRD3 (closest ChEMBL ligand) is 0.12 µM.

With `Cc1ccc(C)c(C(=O)NCCCCN2CCN(c3cc(C)ccc3C)CC2)c1` [CHEMBL1258495], the Ki at human DRD3 (closest ChEMBL ligand) is 0.028 µM.

With `C#CC1CCC(N(CCC)CCCCNC(=O)c2ccc(OCCCc3cnn(CCCC)n3)c(OC)c2)CC1` (stereo not drawn) [CHEMBL2397478], the Ki at human DRD3 (closest ChEMBL ligand) is 0.001 µM.

With `CCCN(CCCCNC(=O)c1cccc2cc[nH]c12)CC1CC1c1cccc(F)c1` (stereo not drawn) [CHEMBL4590839], the Ki at human DRD3 (closest ChEMBL ligand) was 0.0188 µM.

As to `CCc1cc(Cl)c(OC)c(C(=O)NC[C@@H]2CCCN2CC)c1O` [Eticlopride, eticlopride], the Ki on human DRD3 (eticlopride, in Figure 4A) was 0.00012 µM.
